Our source for the IC50 values is BindingDB's records for doi:10.1021/jm00076a003 (Eisai, 1994).

Structures are written as SMILES. pIC50: −log10 of the molar value.

The assay concerns the target cGMP-specific 3',5'-cyclic phosphodiesterase (PDE5A) (Sus scrofa). Kind of assay: Inhibitory activity against cyclic GMP-phosphodiesterase (PDE V) isolated from porcine aorta.
`COc1cc2c(=O)n(CCc3ccc4c(c3)OCO4)cnc2c(OC)c1OC` [3-(2-Benzo[1,3]dioxol-5-yl-ethyl)-6,7,8-trimethoxy-3H-quinazolin-4-one] gave a pIC50 of 4.49.
`COc1cc2c(NCCCCCO)ncnc2c(OC)c1OC` [5-(6,7,8-Trimethoxy-quinazolin-4-ylamino)-pentan-1-ol]: the pIC50 was 5.26.
As for `CCCc1c(OCc2ccc3c(c2)OCO3)ccc2c(=O)cc(C(=O)O)oc12` [7-(Benzo[1,3]dioxol-5-ylmethoxy)-4-oxo-8-propyl-4H-chromene-2-carboxylic acid], the figure is 6.19; as for `CCCc1c(OCCCOc2ccc3c(=O)cc(C(=O)O)oc3c2CCC)ccc(C(C)=O)c1O` [7-[3-(4-Acetyl-3-hydroxy-2-propyl-phenoxy)-propoxy]-4-oxo-8-propyl-4H-chromene-2-carboxylic acid], 5.82; as for `COc1cc2c(NCc3ccc4c(c3)OCCO4)ncnc2c(OC)c1OC` [(2,3-Dihydro-benzo[1,4]dioxin-6-ylmethyl)-(6,7,8-trimethoxy-quinazolin-4-yl)-amine], 6.11.
Turning to `COc1cc(OC)c(CNc2ncnc3c(OC)c(OC)c(OC)cc23)c(OC)c1` [(2,4,6-Trimethoxy-benzyl)-(6,7,8-trimethoxy-quinazolin-4-yl)-amine], the pIC50 is less than 4.00.
`COc1cc(CNc2ncnc3c(OC)c(OC)c(OC)cc23)cc(OC)c1OC` [(3,4,5-Trimethoxy-benzyl)-(6,7,8-trimethoxy-quinazolin-4-yl)-amine]: the pIC50 was 5.05.
`COc1cc2c(NCc3cccc(Cl)c3)ncnc2c(OC)c1OC` [(3-Chloro-benzyl)-(6,7,8-trimethoxy-quinazolin-4-yl)-amine]: the pIC50 is 5.89.
As to `COc1cccc(CNc2ncnc3c(OC)c(OC)c(OC)cc23)c1` [(3-Methoxy-benzyl)-(6,7,8-trimethoxy-quinazolin-4-yl)-amine], the pIC50 was 5.77.
As for `COc1cc2c(NCc3cccc([N+](=O)[O-])c3)ncnc2c(OC)c1OC` [(3-Nitro-benzyl)-(6,7,8-trimethoxy-quinazolin-4-yl)-amine], the pIC50 was 5.46.
The same measure for `COc1cc2c(NCc3ccc(Cl)cc3)ncnc2c(OC)c1OC` [(4-Chloro-benzyl)-(6,7,8-trimethoxy-quinazolin-4-yl)-amine]: 5.89.
As for `COc1ccc(CNc2ncnc3c(OC)c(OC)c(OC)cc23)cc1` [(4-Methoxy-benzyl)-(6,7,8-trimethoxy-quinazolin-4-yl)-amine], the pIC50 is 6.00.
The same measure for `COc1cc2c(NCc3ccc([N+](=O)[O-])cc3)ncnc2c(OC)c1OC` [(4-Nitro-benzyl)-(6,7,8-trimethoxy-quinazolin-4-yl)-amine]: less than 4.00; for `COc1cc2c(NCc3ccccc3)ncnc2c(OC)c1OC` [Benzyl-(6,7,8-trimethoxy-quinazolin-4-yl)-amine]: 5.70; for `COc1cc2c(NCc3ccco3)ncnc2c(OC)c1OC` [Furan-2-ylmethyl-(6,7,8-trimethoxy-quinazolin-4-yl)-amine]: 5.40.
With `COc1cc2c(NCc3ccc4c(c3)CCC4)ncnc2c(OC)c1OC` [Indan-5-ylmethyl-(6,7,8-trimethoxy-quinazolin-4-yl)-amine], the pIC50 is 5.72.
